The assay concerns MV-4-11 cells. Briefly: Gene expression microarray analysis (Affymetrix PrimeView) and GSEA. Type of assay: cell-based, human. Also noted: RFU PODN (11730768_x_at) / Fold change /veh PODN (11730768_x_at) / RFU LINC00158 (11744669_a_at) / Fold change /veh LINC00158 (11744669_a_at) / RFU DUSP10 (11751237_a_at) / Fold change /veh DUSP10 (11751237_a_at) / RFU ID3 (11757404_x_at) / Fold change /veh ID3 (11757404_x_at) / RFU PLEKHG5 (11737974_s_at) / Fold change /veh PLEKHG5 (11737974_s_at) / RFU LRRC4B (11730491_at) / Fold change /veh LRRC4B (11730491_at) / RFU GIMAP4 (11747438_a_at) / Fold change /veh GIMAP4 (11747438_a_at) / RFU KRT8 (11758183_x_at) / Fold change /veh KRT8 (11758183_x_at) / RFU CNN1 (11734310_a_at) / Fold change /veh CNN1 (11734310_a_at) / RFU VPS37D (11726825_at) / Fold change /veh VPS37D (11726825_at) / RFU C10orf10 (11716522_x_at) / Fold change /veh C10orf10 (11716522_x_at) / RFU KIR2DL2 /// KIR2DL4 /// KIR2DL5A /// KIR2DL5B /// KIR2DS1 /// KIR2DS2 /// KIR2DS3 /// KIR2DS4 /// KIR3DL3 /// KIR3DL3 /// KIR3DS1 (11738374_at) / Fold change /veh KIR2DL2 /// KIR2DL4 /// KIR2DL5A /// KIR2DL5B /// KIR2DS1 /// KIR2DS2 /// KIR2DS3 /// KIR2DS4 /// KIR3DL3 /// KIR3DL3 /// KIR3DS1 (11738374_at) / RFU C1QL1 (11718748_at) / Fold change /veh C1QL1 (11718748_at) / RFU TMPRSS4 (11747572_a_at) / Fold change /veh TMPRSS4 (11747572_a_at) / RFU HAMP (11756126_x_at) / Fold change /veh HAMP (11756126_x_at) / RFU RNFT2 (11725882_a_at) / Fold change /veh RNFT2 (11725882_a_at) / RFU NR4A2 (11747474_a_at) / Fold change /veh NR4A2 (11747474_a_at) / RFU ABCC12 (11746883_a_at) / Fold change /veh ABCC12 (11746883_a_at) / RFU TMEM136 (11760407_x_at) / Fold change /veh TMEM136 (11760407_x_at) / RFU CLDN22 /// WWC2 (11732394_at) / Fold change /veh CLDN22 /// WWC2 (11732394_at) / RFU HLA-DPB1 (11760878_x_at) / Fold change /veh HLA-DPB1 (11760878_x_at) / RFU SPINT1 (11716480_a_at) / Fold change /veh SPINT1 (11716480_a_at) / RFU GAP43 (11754022_s_at) / Fold change /veh GAP43 (11754022_s_at) / RFU A4GNT (11735810_at) / Fold change /veh A4GNT (11735810_at) / RFU PRB3 (11715151_x_at) / Fold change /veh PRB3 (11715151_x_at) / RFU TUBB4B (11761932_at) / Fold change /veh TUBB4B (11761932_at) / RFU CAPN14 (11732068_a_at) / Fold change /veh CAPN14 (11732068_a_at) / RFU TMCC2 (11721928_a_at) / Fold change /veh TMCC2 (11721928_a_at) / RFU IRGQ (11745062_a_at) / Fold change /veh IRGQ (11745062_a_at) / RFU FAM174B (11720279_a_at) / Fold change /veh FAM174B (11720279_a_at) / RFU TMPRSS4 (11748680_a_at) / Fold change /veh TMPRSS4 (11748680_a_at) / RFU FAM212B (11763350_a_at) / Fold change /veh FAM212B (11763350_a_at) / RFU PLEKHG5 (11743358_a_at) / Fold change /veh PLEKHG5 (11743358_a_at) / RFU ZSCAN30 (11745921_a_at) / Fold change /veh ZSCAN30 (11745921_a_at) / RFU CMKLR1 (11741424_a_at) / Fold change /veh CMKLR1 (11741424_a_at) / RFU LOC101060620 /// MAPK8IP1 (11723275_at) / Fold change /veh LOC101060620 /// MAPK8IP1 (11723275_at) / RFU SPTSSB (11747773_x_at) / Fold change /veh SPTSSB (11747773_x_at) / RFU PRSS12 (11739890_at) / Fold change /veh PRSS12 (11739890_at) / RFU BIN1 (11741810_x_at) / Fold change /veh BIN1 (11741810_x_at) / RFU WNT11 (11732464_a_at) / Fold change /veh WNT11 (11732464_a_at) / RFU C10orf10 (11716521_a_at) / Fold change /veh C10orf10 (11716521_a_at) / RFU C5orf56 (11738089_at) / Fold change /veh C5orf56 (11738089_at) / RFU CYB561 (11721691_x_at) / Fold change /veh CYB561 (11721691_x_at) / RFU ANKRD19P (11752326_a_at) / Fold change /veh ANKRD19P (11752326_a_at) / RFU OR2T12 /// OR2T33 /// OR2T8 (11738714_s_at) / Fold change /veh OR2T12 /// OR2T33 /// OR2T8 (11738714_s_at) / RFU VCAN (11748164_a_at) / Fold change /veh VCAN (11748164_a_at) / RFU JSRP1 (11732532_at) / Fold change /veh JSRP1 (11732532_at) / RFU KRTAP10-11 (11738290_x_at) / Fold change /veh KRTAP10-11 (11738290_x_at) / RFU MYO3A (11730013_a_at) / Fold change /veh MYO3A (11730013_a_at) / RFU EBF3 (11725865_a_at) / Fold change /veh EBF3 (11725865_a_at) / RFU CAMK2N1 (11719241_x_at) / Fold change /veh CAMK2N1 (11719241_x_at) / RFU C5orf56 (11738088_a_at) / Fold change /veh C5orf56 (11738088_a_at) / RFU OLFML3 (11715873_a_at) / Fold change /veh OLFML3 (11715873_a_at) / RFU LOC100653217 /// NTM (11731650_a_at) / Fold change /veh LOC100653217 /// NTM (11731650_a_at) / RFU MAPK11 (11762145_a_at) / Fold change /veh MAPK11 (11762145_a_at) / RFU FIZ1 (11724087_x_at) / Fold change /veh FIZ1 (11724087_x_at) / RFU OASL (11726364_x_at) / Fold change /veh OASL (11726364_x_at) / RFU SOX15 (11748057_x_at) / Fold change /veh SOX15 (11748057_x_at) / RFU CD79A (11719716_a_at) / Fold change /veh CD79A (11719716_a_at) / RFU HIST1H1D (11736915_at) / Fold change /veh HIST1H1D (11736915_at) / RFU CASKIN2 (11723855_a_at) / Fold change /veh CASKIN2 (11723855_a_at) / RFU LOC730098 (11760151_x_at) / Fold change /veh LOC730098 (11760151_x_at) / RFU OR4N2 (11742367_at) / Fold change /veh OR4N2 (11742367_at) / RFU PRRT2 (11749266_a_at) / Fold change /veh PRRT2 (11749266_a_at) / RFU SNX32 (11753110_a_at) / Fold change /veh SNX32 (11753110_a_at) / RFU CDHR5 (11726645_a_at) / Fold change /veh CDHR5 (11726645_a_at) / RFU RCAN1 (11760418_a_at) / Fold change /veh RCAN1 (11760418_a_at) / RFU FAM167A (11723789_a_at) / Fold change /veh FAM167A (11723789_a_at) / RFU FAM26E (11764081_at) / Fold change /veh FAM26E (11764081_at) / RFU ISYNA1 (11749810_s_at) / Fold change /veh ISYNA1 (11749810_s_at) / RFU ACY1 (11761880_at) / Fold change /veh ACY1 (11761880_at) / RFU 11764098_at / Fold change /veh 11764098_at / RFU SAMD14 (11745864_x_at) / Fold change /veh SAMD14 (11745864_x_at) / RFU NPB (11741838_a_at) / Fold change /veh NPB (11741838_a_at) / RFU TMPRSS6 (11731388_a_at) / Fold change /veh TMPRSS6 (11731388_a_at) / RFU KRTAP10-2 (11738614_at) / Fold change /veh KRTAP10-2 (11738614_at) / RFU ARHGAP8 /// PRR5-ARHGAP8 (11727945_x_at) / Fold change /veh ARHGAP8 /// PRR5-ARHGAP8 (11727945_x_at) / RFU KRTAP5-7 /// NADSYN1 (11734609_at) / Fold change /veh KRTAP5-7 /// NADSYN1 (11734609_at) / RFU RASL12 (11751679_a_at) / Fold change /veh RASL12 (11751679_a_at) / RFU CDKN2B (11736163_a_at) / Fold change /veh CDKN2B (11736163_a_at) / RFU PRF1 (11729649_at) / Fold change /veh PRF1 (11729649_at) / RFU, ZNF638 /// ZNF638-IT1 / Fold change vs veh, ZNF638 /// ZNF638-IT1 / RFU, PANK3 / Fold change vs veh, PANK3 / RFU, SH3YL1 / Fold change vs veh, SH3YL1 / RFU, ZEB2 / Fold change vs veh, ZEB2 / RFU, NRIP1 / Fold change vs veh, NRIP1 / RFU, PTTG1IP / Fold change vs veh, PTTG1IP / RFU, CAPN2 / Fold change vs veh, CAPN2 / RFU, MED14 / Fold change vs veh, MED14 / RFU, SNORA58 / Fold change vs veh, SNORA58 / RFU, C1orf63 / Fold change vs veh, C1orf63 / RFU, LRRFIP1 / Fold change vs veh, LRRFIP1 / RFU, NDUFAF7 / Fold change vs veh, NDUFAF7 / RFU, SLC12A2 / Fold change vs veh, SLC12A2 / RFU, IBTK / Fold change vs veh, IBTK / RFU, ESF1 / Fold change vs veh, ESF1 / Fold change vs veh, TMEM50B / RFU, TAOK1 / Fold change vs veh, TAOK1 / RFU, ACBD3 / Fold change vs veh, ACBD3 / RFU, TMA16 / Fold change vs veh, TMA16 / RFU, RWDD3 / Fold change vs veh, RWDD3 / RFU, BCAT1 / Fold change vs veh, BCAT1 / RFU, EDEM3 / Fold change vs veh, EDEM3 / RFU, TMEM33 / Fold change vs veh, TMEM33 / RFU, WDR75 / Fold change vs veh, WDR75 / RFU, AHCTF1 / Fold change vs veh, AHCTF1 / RFU, TFRC / Fold change vs veh, TFRC / RFU, ZDHHC17 / Fold change vs veh, ZDHHC17 / RFU, NOM1 / Fold change vs veh, NOM1 / RFU, ARL8B / Fold change vs veh, ARL8B / RFU, ZBTB11 / Fold change vs veh, ZBTB11 / RFU, TAMM41 / Fold change vs veh, TAMM41 / RFU, KIAA1704 /// LOC100996395 / Fold change vs veh, KIAA1704 /// LOC100996395 / RFU, ING1 / Fold change vs veh, ING1 / RFU, TRMT61B / Fold change vs veh, TRMT61B / RFU, FUBP3 / Fold change vs veh, FUBP3 / RFU, TP53 / Fold change vs veh, TP53 / RFU, TNKS2 / Fold change vs veh, TNKS2 / RFU, ZFP14 / Fold change vs veh, ZFP14 / RFU, ACTR2 / Fold change vs veh, ACTR2 / RFU, PPP3R1 / Fold change vs veh, PPP3R1 / RFU, PIK3R1 / Fold change vs veh, PIK3R1 / RFU, HNRNPA1 / Fold change vs veh, HNRNPA1 / RFU, RNF170 / Fold change vs veh, RNF170 / RFU, ZNF28 / Fold change vs veh, ZNF28 / RFU, RNGTT / Fold change vs veh, RNGTT / RFU, OGT / Fold change vs veh, OGT / RFU, BRD1 / Fold change vs veh, BRD1 / RFU, MARS / Fold change vs veh, MARS / RFU, ZNF655 / Fold change vs veh, ZNF655 / RFU, FAHD1 / Fold change vs veh, FAHD1 / RFU, BDP1 / Fold change vs veh, BDP1 / RFU, LRRCC1 / Fold change vs veh, LRRCC1 / RFU, ARID1A / Fold change vs veh, ARID1A / RFU, ZNF146 / Fold change vs veh, ZNF146 / RFU, ZNF330 / Fold change vs veh, ZNF330 / RFU, GPN3 / Fold change vs veh, GPN3 / RFU, C9orf123 / Fold change vs veh, C9orf123 / RFU, N4BP2L2 / Fold change vs veh, N4BP2L2 / RFU, ARFIP1 / Fold change vs veh, ARFIP1 / RFU, FAM179B / Fold change vs veh, FAM179B / RFU, BCL10 / Fold change vs veh, BCL10 / RFU, UHRF1BP1L / Fold change vs veh, UHRF1BP1L / RFU, BET1 / Fold change vs veh, BET1 / RFU, CNOT2 / Fold change vs veh, CNOT2 / RFU, ZNF268 / Fold change vs veh, ZNF268 / Fold change vs veh, ZNF507 / RFU, DGCR2 / Fold change vs veh, DGCR2 / RFU, WDSUB1 / Fold change vs veh, WDSUB1 / Fold change vs veh, HSP90B1 /// MIR3652 / RFU, ADSS / Fold change vs veh, ADSS / RFU, GK / Fold change vs veh, GK / RFU, ZNF148 / Fold change vs veh, ZNF148 / RFU, TAF9 / Fold change vs veh, TAF9 / RFU, SLC1A5 / Fold change vs veh, SLC1A5 / RFU, SLMO2 / Fold change vs veh, SLMO2 / RFU, ABCC4 / Fold change vs veh, ABCC4 / RFU, LOC101060439 /// RAP1B / Fold change vs veh, LOC101060439 /// RAP1B / RFU, RFX7 / Fold change vs veh, RFX7 / RFU, GTPBP10 / Fold change vs veh, GTPBP10 / RFU, CNEP1R1 / Fold change vs veh, CNEP1R1 / RFU, BIVM-ERCC5 /// ERCC5 / Fold change vs veh, BIVM-ERCC5 /// ERCC5 / RFU, ILF3 / Fold change vs veh, ILF3 / RFU 11762660_at / Fold change /veh 11762660_at / RFU VCAN (11757783_s_at) / Fold change /veh VCAN (11757783_s_at) / RFU DDX43 (11728927_at) / Fold change /veh DDX43 (11728927_at) / RFU KRT8 (11758188_x_at) / Fold change /veh KRT8 (11758188_x_at) / RFU NKD1 (11759106_at) / Fold change /veh NKD1 (11759106_at) / RFU SRD5A1 (11742802_a_at) / Fold change /veh SRD5A1 (11742802_a_at) / RFU TPSAB1 /// TPSB2 (11721975_s_at) / Fold change /veh TPSAB1 /// TPSB2 (11721975_s_at) / RFU GSTM3 (11746129_a_at) / Fold change /veh GSTM3 (11746129_a_at) / RFU IL23R (11737362_x_at) / Fold change /veh IL23R (11737362_x_at) / RFU TMEM51 (11727254_a_at) / Fold change /veh TMEM51 (11727254_a_at) / RFU PIWIL2 (11732686_x_at) / Fold change /veh PIWIL2 (11732686_x_at) / RFU ORM1 (11744905_x_at) / Fold change /veh ORM1 (11744905_x_at) / RFU CCDC152 (11743942_at) / Fold change /veh CCDC152 (11743942_at) / RFU ECM1 (11717891_a_at) / Fold change /veh ECM1 (11717891_a_at) / RFU IL23R (11748794_a_at) / Fold change /veh IL23R (11748794_a_at) / RFU TNFAIP8L3 (11732012_x_at) / Fold change /veh TNFAIP8L3 (11732012_x_at) / RFU MBOAT4 (11741988_at) / Fold change /veh MBOAT4 (11741988_at) / RFU 11764193_at / Fold change /veh 11764193_at / RFU TMEM53 (11763286_at) / Fold change /veh TMEM53 (11763286_at) / RFU MAGEB2 (11727129_at) / Fold change /veh MAGEB2 (11727129_at) / RFU TMEM200A (11744735_a_at) / Fold change /veh TMEM200A (11744735_a_at) / RFU CCDC152 (11751479_a_at) / Fold change /veh CCDC152 (11751479_a_at) / RFU FAM211A (11726209_a_at) / Fold change /veh FAM211A (11726209_a_at) / RFU RGS16 (11746705_a_at) / Fold change /veh RGS16 (11746705_a_at) / RFU VCAN (11755009_s_at) / Fold change /veh VCAN (11755009_s_at) / RFU RHOB (11743442_s_at) / Fold change /veh RHOB (11743442_s_at) / RFU RGS16 (11720943_a_at) / Fold change /veh RGS16 (11720943_a_at) / RFU RGS16 (11720944_at) / Fold change /veh RGS16 (11720944_at) / RFU, VPS4B / Fold change vs veh, VPS4B / RFU, CREB1 / Fold change vs veh, CREB1 / RFU, DNAJC13 / Fold change vs veh, DNAJC13 / RFU, GNAQ / Fold change vs veh, GNAQ / RFU, CDK5R1 / Fold change vs veh, CDK5R1 / RFU, ZRANB3 / Fold change vs veh, ZRANB3 / RFU, CUL4A / Fold change vs veh, CUL4A / RFU, CCNY / Fold change vs veh, CCNY / RFU, UFL1 / Fold change vs veh, UFL1 / RFU, COG3 / Fold change vs veh, COG3 / RFU, DIAPH2 / Fold change vs veh, DIAPH2 / RFU, SKA2 / Fold change vs veh, SKA2 / RFU, AFF3 / Fold change vs veh, AFF3 / RFU, LMF1 / Fold change vs veh, LMF1 / RFU, IPO11 / Fold change vs veh, IPO11 / RFU, DFFB / Fold change vs veh, DFFB / RFU, FOXP1 / Fold change vs veh, FOXP1 / RFU, CARD8 / Fold change vs veh, CARD8 / RFU, STRN3 / Fold change vs veh, STRN3 / RFU, ADK / Fold change vs veh, ADK / RFU, RASSF2 / Fold change vs veh, RASSF2 / RFU, WIPF1 / Fold change vs veh, WIPF1 / RFU, LARP1B / Fold change vs veh, LARP1B / RFU, RASA1 / Fold change vs veh, RASA1 / RFU, RB1 / Fold change vs veh, RB1 / RFU, PPFIA1 / Fold change vs veh, PPFIA1 / RFU, MAT2A / Fold change vs veh, MAT2A / RFU, CCT5 / Fold change vs veh, CCT5 / RFU, WDR92 / Fold change vs veh, WDR92 / RFU, CUX1 / Fold change vs veh, CUX1 / RFU, TTC7A / Fold change vs veh, TTC7A / RFU, TMEM135 / Fold change vs veh, TMEM135 / RFU, DEPTOR / Fold change vs veh, DEPTOR / RFU, CPM / Fold change vs veh, CPM / RFU, DNAJB6 / Fold change vs veh, DNAJB6 / RFU, CACNA2D3 / Fold change vs veh, CACNA2D3 / RFU, DTX4 / Fold change vs veh, DTX4 / RFU, TFCP2 / Fold change vs veh, TFCP2 / RFU, GMCL1 /// GMCL1P1 / Fold change vs veh, GMCL1 /// GMCL1P1 / RFU, AEBP2 / Fold change vs veh, AEBP2 / RFU, SNHG1 /// SNORD22 /// SNORD25 /// SNORD26 /// SNORD27 /// SNORD28 /// SNORD29 /// SNORD31 / Fold change vs veh, SNHG1 /// SNORD22 /// SNORD25 /// SNORD26 /// SNORD27 /// SNORD28 /// SNORD29 /// SNORD31 / Fold change (Aza/veh), C12orf56 (ProbeSet 11735607_a_at) / Fold change (ACY-1035/veh), C12orf56 (ProbeSet 11735607_a_at) / Fold change (Aza/veh), FGFR1OP (ProbeSet 11751329_s_at) / Fold change (ACY-1035/veh), FGFR1OP (ProbeSet 11751329_s_at) / Fold change (Aza/veh), VPS36 (ProbeSet 11739960_a_at) / Fold change (ACY-1035/veh), VPS36 (ProbeSet 11739960_a_at) / RFU SYPL1 (11715823_x_at) / Fold change /veh SYPL1 (11715823_x_at) / RFU IGFBP7 (11715501_s_at) / Fold change /veh IGFBP7 (11715501_s_at) / RFU REEP3 (11722064_at) / Fold change /veh REEP3 (11722064_at) / RFU IGLL1 (11728026_x_at) / Fold change /veh IGLL1 (11728026_x_at): dose or concentration left out as unconfirmed. Particulars: ProbeSet 11726703_a_at; LIST B.

Results on one molecule are retold here after publication PMC5218480 (PLoS ONE, 2017).

Take `Nc1ccc(-c2cccs2)cc1NC(=O)c1ccc2c(c1)cc(C1CC1)n2CCN1CCOCC1` [ACY-1035]: the “Fold change vs veh, BCL10” value came out at 0.84.
